Read-outs that look alike come from different tables or passages of the source.
Columns and labels:
M.tb isolates [1] = type: cell-based, Mycobacterium tuberculosis
M.tb isolates [2] = type: cell-based, Mycobacterium tuberculosis; remark: listed apart in the source
eis promoter region = type: binding; conditions: clinical DNA
rrs gene = type: binding; conditions: clinical DNA
[3] = eis promoter G(−10)A + NM (mixed)
[4] = rrs-A1401G + eis C(−14)T double mutant

## NC[C@H]1O[C@H](O[C@H]2[C@H](O)[C@@H](O[C@H]3O[C@H](CO)[C@@H](O)[C@H](N)[C@H]3O)[C@H](N)C[C@@H]2N)[C@H](O)[C@@H](O)[C@@H]1O [KAN, Kanamycin]
M.tb isolates [1]
  Susceptibility (LJ): S and R
  Total number of isolates Susceptible (LJ): 497
M.tb isolates [2]
  Susceptibility (MGIT): R and S
  Total number of isolates Susceptible (MGIT): 447

## ctcgcGGCATATGCCACAGTCGGATTCTcTGACgcgag (DNA CTCGCGGCATATGCCACAGTCGGATTCTCTGACGCGAG; molecular beacon, labels not given here, further chemistry not given here) [eis-2, SMB probe targeted against the eis promoter region]
Eis promoter region; No mutation (NM), wild type
  Mean Tm: 69 °C
Eis promoter region; No mutation (NM), wild type, listed as eis2
  Mean Tm: 69.00 °C
Eis promoter region; eis promoter C(−8) deletion
  Mean Tm: 63.10 °C
  dTm (Tm difference of mutant from wild type): 5.90 °C
Eis promoter region; eis promoter C(−12)T
  Mean Tm: 62.92 °C
  dTm (Tm difference of mutant from wild type): 6.08 °C
Eis promoter region; eis promoter C(−14)T
  Mean Tm: 62.60 °C
  dTm (Tm difference of mutant from wild type): 6.40 °C
Eis promoter region; eis promoter G(−10)A
  Mean Tm: 64.70 °C
  dTm (Tm difference of mutant from wild type): 4.30 °C
Eis promoter region; [3]
  dTm (Tm difference of mutant from wild type): 4.20 °C
Eis promoter region; eis promoter G(−10)A + NM (mixed, double Tm peak for eis2)
  Mean Tm: 64.80-69.10 °C
Eis promoter region; eis promoter G(−37)T
  Mean Tm: 69.10 °C
  dTm (Tm difference of mutant from wild type): −0.10 °C
Eis promoter region; rrs gene A1401G
  Mean Tm: 69.10 °C
  dTm (Tm difference of mutant from wild type): −0.10 °C
Eis promoter region; rrs gene A1401G + NM (mixed)
  Mean Tm: 69.10 °C
  dTm (Tm difference of mutant from wild type): −0.10 °C
Eis promoter region; rrs gene C1402T + NM (mixed)
  Mean Tm: 69.20 °C
  dTm (Tm difference of mutant from wild type): −0.20 °C
Eis promoter region; [4]
  Mean Tm: 62.50 °C
  dTm (Tm difference of mutant from wild type): 6.50 °C

## NCC[C@H](O)C(=O)N[C@@H]1C[C@H](N)[C@@H](O[C@H]2O[C@H](CN)[C@@H](O)[C@H](O)[C@H]2O)[C@H](O)[C@H]1O[C@H]1O[C@H](CO)[C@@H](O)[C@H](N)[C@H]1O [AMK, Amikacin]
M.tb isolates [1]
  Susceptibility (LJ): S and R
  Total number of isolates Susceptible (LJ): 513

## cacgACCGCCCGTCACGTCATGAAAGTCGGTcgtg (DNA CACGACCGCCCGTCACGTCATGAAAGTCGGTCGTG; molecular beacon, labels not given here, further chemistry not given here) [rrs-1400, SMB probe targeted against the rrs gene]
Rrs gene; No mutation (NM), wild type
  Mean Tm: 70.1 °C
Rrs gene; eis promoter C(−8) deletion
  Mean Tm: 70.10 °C
  dTm (Tm difference of mutant from wild type): 0.00 °C
Rrs gene; eis promoter C(−12)T
  Mean Tm: 70.15 °C
  dTm (Tm difference of mutant from wild type): −0.05 °C
Rrs gene; eis promoter C(−14)T
  Mean Tm: 70.10 °C
  dTm (Tm difference of mutant from wild type): 0.00 °C
Rrs gene; eis promoter G(−10)A
  Mean Tm: 70.20 °C
  dTm (Tm difference of mutant from wild type): −0.10 °C
Rrs gene; [3]
  Mean Tm: 70.20 °C
  dTm (Tm difference of mutant from wild type): −0.10 °C
Rrs gene; eis promoter G(−37)T
  Mean Tm: 70.20 °C
  dTm (Tm difference of mutant from wild type): −0.10 °C
Rrs gene; rrs gene A1401G
  Mean Tm: 66.20 °C
  dTm (Tm difference of mutant from wild type): 3.9 °C
Rrs gene; rrs gene A1401G + NM (mixed)
  dTm (Tm difference of mutant from wild type): 3.90 °C
Rrs gene; rrs gene A1401G + NM (mixed, double Tm peak)
  Mean Tm: 66.20-70.10 °C
Rrs gene; rrs gene C1402T + NM (mixed)
  dTm (Tm difference of mutant from wild type): 5.6 °C
Rrs gene; rrs gene C1402T + NM (mixed, double Tm peak)
  Mean Tm: 64.50-70.10 °C
Rrs gene; [4]
  Mean Tm: 66.30 °C
  dTm (Tm difference of mutant from wild type): 3.80 °C

Source: patent publication US12139768B2, “Polymerase chain reaction primers and probes for Mycobacterium tuberculosis” (Rutgers, The State University of New Jersey, priority 2014, dated 2024)
